Reference: patent US20140113898A1, “BISARYLSULFONE AND DIALKYLARYLSULFONE COMPOUNDS AS CALCIUM CHANNEL BLOCKERS” (Zalicus Pharmaceuticals Ltd., priority 2010, published 2014)
Where two headings read alike, the source gives them in different places.

Experiments:
Format in all cases: cell-based
CaV2.2 = biological target: T1, CaV2.2 (Homo sapiens, UniProt Q00975); test: High-throughput CaV2.2/Kir2.3 FLIPR fluorescent assay; conditions: Fluo-4 FLIPR, closed or inactivated state not stated, read-out: FLIPR data CaV2.2
T1 construct: expressed in transfected cells; host or cells: unnamed doxycycline-inducible cell line
In short: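 Doxycycline-induced cells moved to 29 °C on assay day and were loaded with 4.4 μM Fluo-4. They were held in 2 mM KCl (closed state) or 12.5 mM KCl (inactivated state) buffer, pH 7.4, then depolarized with 130 mM KCl. Fluorescence was read 3 min on FLIPR, and IC50 was obtained from logistic fits.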

CaV3.1 = biological target: T2, CaV3.1 (Homo sapiens, UniProt O43497); test: High-throughput CaV3.1 T-type FLIPR fluorescent assay; conditions: Fluo-4 FLIPR
T2 construct: expressed in transfected cells; host or cells: unnamed doxycycline-inducible cell line
T2 sequence (O43497 whole entry): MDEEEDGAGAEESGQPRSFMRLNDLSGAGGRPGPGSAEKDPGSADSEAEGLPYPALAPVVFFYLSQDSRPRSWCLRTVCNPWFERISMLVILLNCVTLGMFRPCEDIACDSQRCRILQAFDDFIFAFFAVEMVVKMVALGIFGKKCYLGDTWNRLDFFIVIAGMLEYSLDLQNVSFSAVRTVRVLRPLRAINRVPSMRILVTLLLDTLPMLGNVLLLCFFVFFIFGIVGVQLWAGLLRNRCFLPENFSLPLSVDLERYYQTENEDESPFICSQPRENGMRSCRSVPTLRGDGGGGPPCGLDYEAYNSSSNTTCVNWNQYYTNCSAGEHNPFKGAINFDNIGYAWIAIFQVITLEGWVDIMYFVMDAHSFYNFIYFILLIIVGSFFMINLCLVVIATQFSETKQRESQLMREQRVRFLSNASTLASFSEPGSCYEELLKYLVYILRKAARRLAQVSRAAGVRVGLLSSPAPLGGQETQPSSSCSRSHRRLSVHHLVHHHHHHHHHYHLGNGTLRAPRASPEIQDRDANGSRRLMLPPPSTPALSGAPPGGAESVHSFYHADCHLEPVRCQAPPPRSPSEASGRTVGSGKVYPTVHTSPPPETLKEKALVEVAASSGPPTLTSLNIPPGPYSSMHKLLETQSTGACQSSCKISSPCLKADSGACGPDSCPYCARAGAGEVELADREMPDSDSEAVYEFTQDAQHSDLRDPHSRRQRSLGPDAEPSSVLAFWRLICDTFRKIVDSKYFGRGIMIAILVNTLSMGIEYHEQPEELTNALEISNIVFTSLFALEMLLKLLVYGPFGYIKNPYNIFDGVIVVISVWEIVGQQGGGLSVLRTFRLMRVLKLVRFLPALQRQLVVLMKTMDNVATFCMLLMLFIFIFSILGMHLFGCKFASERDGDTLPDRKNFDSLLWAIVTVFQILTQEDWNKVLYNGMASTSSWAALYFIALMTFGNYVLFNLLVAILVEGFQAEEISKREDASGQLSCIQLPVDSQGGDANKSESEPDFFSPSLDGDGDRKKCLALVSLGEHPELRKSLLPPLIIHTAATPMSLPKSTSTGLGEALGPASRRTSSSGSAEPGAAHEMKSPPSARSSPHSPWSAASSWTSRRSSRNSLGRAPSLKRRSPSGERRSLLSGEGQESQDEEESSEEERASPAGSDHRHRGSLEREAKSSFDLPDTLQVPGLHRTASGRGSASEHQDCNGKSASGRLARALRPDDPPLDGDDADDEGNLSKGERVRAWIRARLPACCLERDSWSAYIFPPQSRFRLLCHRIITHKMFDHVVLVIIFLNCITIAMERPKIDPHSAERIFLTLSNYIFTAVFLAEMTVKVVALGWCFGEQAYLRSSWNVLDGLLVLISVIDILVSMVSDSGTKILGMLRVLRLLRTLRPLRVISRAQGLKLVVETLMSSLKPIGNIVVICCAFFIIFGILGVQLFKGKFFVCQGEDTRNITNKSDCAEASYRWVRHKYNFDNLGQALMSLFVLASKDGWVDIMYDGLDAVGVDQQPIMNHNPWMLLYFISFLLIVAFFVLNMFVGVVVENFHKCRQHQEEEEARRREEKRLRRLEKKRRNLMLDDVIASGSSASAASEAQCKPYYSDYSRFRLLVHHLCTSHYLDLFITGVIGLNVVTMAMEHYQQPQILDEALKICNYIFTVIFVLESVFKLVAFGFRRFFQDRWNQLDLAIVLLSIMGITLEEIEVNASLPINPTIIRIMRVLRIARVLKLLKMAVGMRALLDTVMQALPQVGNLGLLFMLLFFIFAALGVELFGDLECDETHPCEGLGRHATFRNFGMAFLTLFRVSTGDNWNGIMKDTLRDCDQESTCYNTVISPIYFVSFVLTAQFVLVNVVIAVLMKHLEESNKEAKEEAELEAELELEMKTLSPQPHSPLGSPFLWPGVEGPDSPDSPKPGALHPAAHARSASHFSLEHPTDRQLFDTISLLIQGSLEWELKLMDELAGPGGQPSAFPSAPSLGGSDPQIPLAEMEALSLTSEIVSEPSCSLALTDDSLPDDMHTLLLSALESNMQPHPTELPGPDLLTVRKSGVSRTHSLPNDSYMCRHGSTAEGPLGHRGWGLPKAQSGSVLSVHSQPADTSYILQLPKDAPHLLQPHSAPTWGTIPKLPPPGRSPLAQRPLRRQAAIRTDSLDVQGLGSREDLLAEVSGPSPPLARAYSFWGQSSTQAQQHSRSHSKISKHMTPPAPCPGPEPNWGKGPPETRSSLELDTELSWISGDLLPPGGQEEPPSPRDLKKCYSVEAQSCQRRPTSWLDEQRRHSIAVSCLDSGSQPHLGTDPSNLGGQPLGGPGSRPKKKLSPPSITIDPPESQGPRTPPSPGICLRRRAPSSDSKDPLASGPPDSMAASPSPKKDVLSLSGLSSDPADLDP
Description: (§1) Cells were plated in 384-well, clear-bottom, black-walled, poly-D-lysine coated plates (Becton Dickinson, Franklin Lake, N.J.) 2 days prior to use in the FLIPR assay. 100 μL of cells (2.0×10^6 cell/mL) containing doxycyline (Sigma-Aldrich, 1.5 μg/mL; to induce channel expression) were added to each well using a Multidrop (Thermo Scientific, Waltham, Mass.) and were maintained in 5% CO2 incubator at 37° C. On the morning of the assay, cells were transferred to a 5% CO2 incubator at 29° C.
Cells were washed with a wash buffer containing (in mM): 118 NaCl, 18.4 HEPES, 11.7 D-glucose, 0.05 CaCl2, 0.5 MgSO4, 1 KCl, and 1.2 KH2PO4, with the pH adjusted to 7.2 with NaOH. 4.4 μM of the fluorescent indicator dye, Fluo-4 (Invitrogen), prepared in pluronic acid
(Sigma-Aldrich), was loaded into the wells and incubated for 45 minutes at 29° C. in 5% CO2. Cells were then rinsed with the following low Ca^2+ buffer (in mM): 0.34 Na2HPO4, 4.2 NaHCO3, 0.44 KH2PO4, 0.41 MgSO4, 0.49 MgCl2-6H2O, 20 HEPES, 5.5 D-Glucose, 137 NaCl, 5.3 KCl, and 0.001 CaCl2, with 0.1% BSA and the pH adjusted to 7.2 with NaOH. Concentration-dependent response curves were generated from 5 mM stock solutions prepared in DMSO (Sigma-Aldrich) and diluted in the buffer containing low Ca^2+ and incubated for 20 minutes at 29° C. in 5% CO2. Calcium entry was evoked with an addition of (in mM): 0.34 Na2HPO4, 4.2 NaHCO3, 0.44 KH2PO4, 0.41 MgSO4, 0.49 MgCl2-6H2O, 20 HEPES, 5.5 D-Glucose, 137 NaCl, 5.3 KCl, and 6 CaCl2, with 0.1% BSA and the pH adjusted to 7.2 with NaOH. A change in the Fluo-4 fluorescence signal was assessed using FLIPR^TETRA™ instrument (Molecular Devices, Sunnyvale, Calif.) for 3 minutes following the elevation of extracellular KCl using an illumination wavelength of 470-495 nm with emissions recorded at 515-575 nm.
(§2) Concentration-dependent response curves were obtained by comparing the fluorescence signal in the presence of compound and fitted with a logistic function (1) to obtain the concentration that inhibited 50% (IC50) of the RLU signal using OriginPro v.7.5 software (OriginLab, Northampton, Mass.).
(§3) To assess the quality of the FLIPR assays the Z-factor (2) was used to quantify the suitability of the assay conditions using the following equation: […]
(§4) Data are expressed as mean and standard deviation (SD).

CaV3.2 = biological target: T3, CaV3.2 (Homo sapiens, UniProt O95180); test: High-throughput CaV3.2/Kir2.3 T-type FLIPR fluorescent assay; conditions: Fluo-4 FLIPR, closed or inactivated state not stated
T3 construct: expressed in transfected cells; host or cells: unnamed doxycycline-inducible cell line
T3 sequence (O95180 whole entry): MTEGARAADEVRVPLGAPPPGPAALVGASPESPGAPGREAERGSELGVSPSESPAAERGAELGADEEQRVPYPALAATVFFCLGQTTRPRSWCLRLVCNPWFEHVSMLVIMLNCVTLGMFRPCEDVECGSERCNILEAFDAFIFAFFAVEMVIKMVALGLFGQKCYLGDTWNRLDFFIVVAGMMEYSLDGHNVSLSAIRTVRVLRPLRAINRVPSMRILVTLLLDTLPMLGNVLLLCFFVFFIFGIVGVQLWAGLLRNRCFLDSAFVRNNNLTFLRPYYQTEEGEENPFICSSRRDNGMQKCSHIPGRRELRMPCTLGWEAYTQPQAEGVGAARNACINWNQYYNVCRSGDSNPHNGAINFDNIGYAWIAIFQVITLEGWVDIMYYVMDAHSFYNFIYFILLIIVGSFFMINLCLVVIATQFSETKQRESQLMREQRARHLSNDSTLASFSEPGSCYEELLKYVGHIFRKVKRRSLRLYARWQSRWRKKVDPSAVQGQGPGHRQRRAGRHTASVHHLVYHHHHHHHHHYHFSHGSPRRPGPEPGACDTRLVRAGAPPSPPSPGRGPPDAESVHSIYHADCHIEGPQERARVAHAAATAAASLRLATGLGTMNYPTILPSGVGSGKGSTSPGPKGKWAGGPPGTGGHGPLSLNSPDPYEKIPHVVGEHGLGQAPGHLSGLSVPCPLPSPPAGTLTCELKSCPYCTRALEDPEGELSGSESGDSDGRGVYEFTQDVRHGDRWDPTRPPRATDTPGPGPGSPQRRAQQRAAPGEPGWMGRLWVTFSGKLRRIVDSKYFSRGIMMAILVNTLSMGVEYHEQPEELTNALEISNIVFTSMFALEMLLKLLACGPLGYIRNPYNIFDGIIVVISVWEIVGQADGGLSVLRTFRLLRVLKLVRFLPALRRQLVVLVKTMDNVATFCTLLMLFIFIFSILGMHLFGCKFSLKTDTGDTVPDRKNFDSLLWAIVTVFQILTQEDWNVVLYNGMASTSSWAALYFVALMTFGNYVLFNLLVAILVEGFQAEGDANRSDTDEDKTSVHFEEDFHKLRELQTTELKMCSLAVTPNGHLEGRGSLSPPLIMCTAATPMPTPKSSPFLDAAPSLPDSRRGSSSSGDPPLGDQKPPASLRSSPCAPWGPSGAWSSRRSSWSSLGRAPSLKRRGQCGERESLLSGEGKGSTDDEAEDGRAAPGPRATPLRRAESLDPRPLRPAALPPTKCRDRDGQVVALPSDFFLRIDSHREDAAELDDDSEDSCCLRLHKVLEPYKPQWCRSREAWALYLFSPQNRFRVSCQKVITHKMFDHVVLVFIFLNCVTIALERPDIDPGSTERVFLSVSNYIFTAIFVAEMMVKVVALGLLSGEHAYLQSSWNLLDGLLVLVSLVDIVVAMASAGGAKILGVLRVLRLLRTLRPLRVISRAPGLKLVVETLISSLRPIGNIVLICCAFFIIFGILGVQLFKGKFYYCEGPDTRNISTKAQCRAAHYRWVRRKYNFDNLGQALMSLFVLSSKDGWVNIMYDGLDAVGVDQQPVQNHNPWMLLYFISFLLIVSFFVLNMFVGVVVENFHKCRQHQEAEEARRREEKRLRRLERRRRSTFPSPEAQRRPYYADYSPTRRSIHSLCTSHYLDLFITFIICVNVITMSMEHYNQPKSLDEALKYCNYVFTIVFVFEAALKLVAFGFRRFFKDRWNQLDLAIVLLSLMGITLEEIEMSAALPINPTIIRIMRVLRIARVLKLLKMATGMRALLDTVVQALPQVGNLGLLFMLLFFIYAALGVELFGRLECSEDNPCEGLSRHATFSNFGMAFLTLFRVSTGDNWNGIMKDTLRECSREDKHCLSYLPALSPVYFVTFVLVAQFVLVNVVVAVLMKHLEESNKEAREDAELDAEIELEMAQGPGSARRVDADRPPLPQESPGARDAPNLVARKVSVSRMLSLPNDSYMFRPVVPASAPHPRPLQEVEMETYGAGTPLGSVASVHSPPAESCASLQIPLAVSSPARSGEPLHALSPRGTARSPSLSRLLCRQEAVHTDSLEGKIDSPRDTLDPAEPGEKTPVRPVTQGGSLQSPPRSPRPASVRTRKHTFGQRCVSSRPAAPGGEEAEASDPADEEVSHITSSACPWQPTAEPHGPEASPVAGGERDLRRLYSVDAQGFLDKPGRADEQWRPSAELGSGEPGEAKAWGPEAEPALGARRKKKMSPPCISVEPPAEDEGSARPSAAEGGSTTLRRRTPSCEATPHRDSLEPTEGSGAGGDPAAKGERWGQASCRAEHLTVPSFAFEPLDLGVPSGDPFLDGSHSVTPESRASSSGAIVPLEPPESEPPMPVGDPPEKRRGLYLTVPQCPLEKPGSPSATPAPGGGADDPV
Description: as §1, with “µL” for “μL”, “(1.2×10^6” for “(2.0×10^6”
Cells were washed with a wash buffer containing (in mM): 118 NaCl, 18.4 HEPES, 11.7 D-glucose, 2 CaCl2, 0.5 MgSO4, 4.7 KCl, and 1.2 KH2PO4, with the pH adjusted to 7.2 with
NaOH. 4.4 μM of the fluorescent indicator dye Fluo-4 (Invitrogen) prepared in pluronic acid (Sigma-Aldrich) was loaded into the wells and incubated for 45 minutes at 29° C. in 5% CO2. Cells were then rinsed with either a 2 mM KCl closed-state buffer (in mM: 138.5 NaCl, 10 HEPES, 10 D-glucose, 1 CaCl2, and 2 KCl, with the pH adjusted to 7.4 with NaOH) when performing the closed-state assay or 7.6 mM KCl inactivated-state buffer (in mM: 130.9 NaCl, 10 HEPES, 10 D-glucose, 1 CaCl2, and 7.6 mM KCl, with the pH adjusted to 7.4 with NaOH) when performing the inactivated-state assay. Concentration-dependent response curves were generated from 5 mM stock solutions prepared in DMSO (Sigma-Aldrich), diluted in either the 2 mM KCl buffer or 7.6 mM KCl buffer, and incubated for 20 minutes at 29° C. in 5% CO2. Calcium entry was evoked with an addition of either 12 mM KCl stimulation buffer (in mM: 128.5 NaCl, 10 HEPES, 10 D-glucose, 1 CaCl2, and 12 KCl, with the pH adjusted to 7.4 with NaOH) or 14.5 mM KCl stimulation buffer (in mM: 126 NaCl, 10 HEPES, 10 D-glucose, 1 CaCl2, and 14.5 KCl, with the pH adjusted to 7.4 with NaOH) for the closed-state or inactivated-state assay respectively. A change in the Fluo-4 fluorescence signal was assessed using FLIPR^TETRA™ instrument (Molecular Devices, Sunnyvale, Calif.) for 3 minutes following the elevation of extracellular KCl using an illumination wavelength of 470-495 nm with emissions recorded at 515-575 nm.
as §2, §3, §4

An IC50 (CaV2.2; Table 4) of 0.17 µM, an IC50 (CaV3.1; Table 4) of 1.58 µM and an IC50 (CaV3.2; Table 4) of 1.74 µM were found for `CC(C)S(=O)(=O)c1cc(C(F)(F)F)cnc1C(=O)NCc1cccc(S(=O)(=O)c2cccc(C(F)(F)F)c2)c1` [Compound 25, 3-(isopropylsulfonyl)-5-(trifluoromethyl)-N-(3-((3-(trifluoromethyl)phenyl)sulfonyl)benzyl)picolinamide] in this work.

An IC50 (CaV2.2; Table 4) of 0.58 µM, an IC50 (CaV3.1; Table 4) of 1.88 µM and an IC50 (CaV3.2; Table 4) of 1.18 µM were found for `O=C(NCc1cccc(S(=O)(=O)c2cccc(C(F)(F)F)c2)c1)c1cnc(C(F)(F)F)nc1` [Compound 26, 2-(trifluoromethyl)-N-(3-((3-(trifluoromethyl)phenyl)sulfonyl)benzyl)pyrimidine-5-carboxamide] in this work.

An IC50 (CaV2.2; Table 4) of 0.74 µM, an IC50 (CaV3.1; Table 4) of 1.39 µM and an IC50 (CaV3.2; Table 4) of 0.49 µM were found for `O=C(NCc1ccc(S(=O)(=O)c2cccc(C(F)(F)F)c2)cc1)c1ccc(Cl)c(OC(F)(F)F)c1` [Compound 15, 4-chloro-3-(trifluoromethoxy)-N-(4-((3-(trifluoromethyl)phenyl)sulfonyl)benzyl)benzamide] in this work.

An IC50 (CaV2.2; Table 4) of 0.45 µM, an IC50 (CaV3.1; Table 4) of 6.98 µM and an IC50 (CaV3.2; Table 4) of 2.09 µM were found for `O=C(NCc1ccc(S(=O)(=O)c2cccc(C(F)(F)F)c2)cn1)[C@H]1C[C@@H](C2CCCCC2)CN1` [Compound 107, (2R,4S)-4-cyclohexyl-N-((5-((3-(trifluoromethyl)phenyl)sulfonyl)pyridin-2-yl)methyl)pyrrolidine-2-carboxamide] in this work.

An IC50 (CaV2.2; Table 4) of 0.59 µM, an IC50 (CaV3.1; Table 4) of 1.63 µM and an IC50 (CaV3.2; Table 4) of 0.97 µM were found for `O=C1c2cc(C(F)(F)F)nn2CCN1Cc1cccc(S(=O)(=O)c2cccc(C(F)(F)F)c2)c1` [Compound 34, 2-(trifluoromethyl)-5-(3-((3-(trifluoromethyl)phenyl)sulfonyl)benzyl)-6,7-dihydropyrazolo[1,5-a]pyrazin-4(5H)-one] in this work.

An IC50 (CaV2.2; Table 4) of 0.66 µM, an IC50 (CaV3.1; Table 4) of 3.64 µM and an IC50 (CaV3.2; Table 4) of 3.74 µM were found for `N[C@H](C(=O)NCc1ccc(S(=O)(=O)c2cccc(C(F)(F)F)c2)cc1)c1ccccc1` [Compound 67, (S)-2-amino-2-phenyl-N-(4-((3-(trifluoromethyl)phenyl)sulfonyl)benzyl)acetamide] in this work.

An IC50 (CaV2.2; Table 5) of 0.7 µM, an IC50 (CaV3.1; Table 5) of 4.89 µM and an IC50 (CaV3.2; Table 5) of 1.64 µM were found for `CC(C)(C(=O)Nc1ccc(Oc2ccc(C(F)(F)F)nc2)nc1)S(=O)(=O)c1cccc(OC(F)(F)F)c1` [Compound 122, 2-methyl-2-((3-(trifluoromethoxy)phenyl)sulfonyl)-N-(6-((6-(trifluoromethyl)pyridin-3-yl)oxy)pyridin-3-yl)propanamide] in this work.

An IC50 (CaV2.2; Table 4) of 0.38 µM, an IC50 (CaV3.1; Table 4) of 0.92 µM and an IC50 (CaV3.2; Table 4) of 1.39 µM were found for `Cn1nc(C(F)(F)F)cc1C(=O)NCc1ccccc1S(=O)(=O)c1cccc(C(F)(F)F)c1` [Compound 41, 1-methyl-3-(trifluoromethyl)-N-(2-((3-(trifluoromethyl)phenyl)sulfonyl)benzyl)-1H-pyrazole-5-carboxamide] in this work.

An IC50 (CaV2.2; Table 4) of 0.97 µM, an IC50 (CaV3.1; Table 4) of 1.58 µM and an IC50 (CaV3.2; Table 4) of 1.74 µM were found for `O=C(NCc1ccc(S(=O)(=O)c2cccc(C(F)(F)F)c2)cn1)c1cc(F)cc(Cl)c1` [Compound 89, 3-chloro-5-fluoro-N-((5-((3-(trifluoromethyl)phenyl)sulfonyl)pyridin-2-yl)methyl)benzamide] in this work.

An IC50 (CaV2.2; Table 4) of 0.44 µM and an IC50 (CaV3.1; Table 4) of 0.58 µM were found for `N[C@@H](C(=O)NCc1ccc(S(=O)(=O)c2cccc(C(F)(F)F)c2)cc1)c1ccccc1` [Compound 63, (R)-2-amino-2-phenyl-N-(4-((3-(trifluoromethyl)phenyl)sulfonyl)benzyl)acetamide] in this work.

An IC50 (CaV2.2; Table 5) of 1.02 µM and an IC50 (CaV3.1; Table 5) of 5.69 µM were found for `CC(C)(C(=O)Nc1ccc(Oc2ccc(C(F)(F)F)cn2)nc1)S(=O)(=O)c1cccc(C(F)(F)F)c1` [Compound 120, 2-methyl-2-((3-(trifluoromethyl)phenyl)sulfonyl)-N-(6-((5-(trifluoromethyl)pyridin-2-yl)oxy)pyridin-3-yl)propanamide] in this work.
